Laboratory results reported in a melting point compilation (Tetko et al.; mined from patent text by program, amines drawn as free bases though some values may be those of a salt).

Structure (SMILES)	melting point [°C]
Cc1cc(C)c(-n2c(C)cc(C)c(C#N)c2=O)cc1NS(=O)(=O)C(F)(F)F	274 to 276
Clc1cc(-c2cnco2)nc(Cl)c1Cl	128 to 130
O=C(N(Cc1ccccc1)Cc1cccs1)C12CC3CC(CC(C3)C1)C2	130 to 132
COc1ccc2[nH]c(S(=O)(=O)c3ccc(=O)[nH]n3)cc2c1	> 250
CN1CC(CCCN2CCN(c3ncccn3)CC2)OC1=O (stereo unspecified)	79 to 89
CC(C)=CCn1c(N(C)C[C@@H](C)N)nc2c1c(=O)n(C)c(=O)n2C	101 to 104
CCNC(=NC(=Nc1ccccc1)N1CCOCC1)C(C)C	155 to 158
CCCCOC(=O)NCCc1ccc(OCC(O)CNC(C)C)nc1 (stereo unspecified)	93 to 95
COc1ccc(C=C(C)c2cc(OC)sc2C)cc1	112 to 113
CC(=O)SCC(C)C(=O)NC(CCCNC(=N)N)C(=O)O (stereo unspecified)	133
COc1ccc(CCN(C)C)c2[nH]c(=S)[nH]c12	213 to 216
S=c1nc(-c2cccnc2Cl)[nH]n1Cc1ccccc1	155 to 156
CCOC(=O)c1c(Cl)c2cnccc2[nH]c1=O	219
CNC1CCN(c2ncc(C(F)(F)F)s2)C1=O (stereo unspecified)	108 to 109
CC[C@H](C)[C@H](Nc1nc(OC)ns1)C(=O)N1CCC[C@H]1C(=O)OC	129 to 130
COC(=O)C(C#N)=C(N)c1c(-c2ccccc2)noc1N	256
Cn1c(=O)c2conc2n(C)c1=O	170 to 171
COc1ccc(C=CC2=NNC(C)Cc3cc(OC)c(OC)cc32)c(OC)c1 (stereo unspecified)	118 to 120
CC(C)(C)[Si](C)(C)O[C@@H]1c2cc(Br)ccc2-c2ccc(Br)cc2[C@H]1O[Si](C)(C)C(C)(C)C (relative stereo)	162 to 163
CCCCCCCCCCCCc1nnn(C(C(=O)O)C(C)C)n1 (stereo unspecified)	39 to 42
COc1cc(C)c(C=O)cc1OCc1ccccc1	107 to 109
COC1CCCC(C2NC(=O)C2C(C)O[Si](C)(C)C(C)(C)C)C1O (stereo unspecified)	146 to 148
O=C1Nc2ccccc2Nc2ccccc21	121 to 123
O=C(C=Cc1ccccc1)CC(=O)c1ccccc1	108
COc1ccc2ccnc(N)c2c1	128 to 130
Cc1[nH]cnc1CSCCNc1[nH]cc(-c2ccccc2)c1[N+](=O)[O-]	182 to 184
CCCCCSc1cc(C(C)(C)C)c(O)c(C(C)(C)C)c1	54 to 55

Structure (SMILES)	melting point [°C]
Cc1cc(CSCCC(=C(N)NCC(O)c2ccccc2)[N+](=O)[O-])sc1CN(C)C (stereo unspecified)	114 to 115
[N-]=[N+]=NCCCC(=O)N1CCc2c(OC(CO)CO)ccc([N+](=O)[O-])c21	78 to 79
CC(C)OP(=O)(OC(C)C)c1nc(N)nc(N)n1	> 400
CCOc1ccc2nc(NC(=O)N(C)C)sc2c1	183 to 186
COc1ccc2ccc(I)cc2c1	116
NCCC(O)(c1ccc(Br)cc1)c1cccnc1 (stereo unspecified)	95 to 115
CNC(=C[N+](=O)[O-])NCCSCc1nccc(NC(N)=NCC(F)(F)F)n1	154 to 157
CN1C(=O)Cc2cc(CBr)cnc21	65
CC(C#Cc1ccc(F)cc1)N(O)C(N)=O (stereo unspecified)	156 to 158
OCCNCC(O)c1ccccc1 (stereo unspecified)	96 to 98
C#CCn1c(-c2cc(Cl)nc(Cl)c2)nc(O)c(OC)c1=O	227 to 228
CCCCC(CC)CNC(=O)c1cc(C(C)(C)C)c(O)c(C(C)(C)C)c1 (stereo unspecified)	136 to 140
O=C(O)CCC(=O)Nc1cc(C(=O)O)cc([N+](=O)[O-])c1	220 to 221
C=CCc1c(O)c(C(C)=O)cc(C(C)=O)c1O	84 to 86
CCc1cc(C)cc(CC)c1C1C(=O)C2=CC(CCC(C)=NOC)CC2C1=O (stereo unspecified)	79 to 80
O=C1NC(=S)SC1=Cc1ccc(OCc2ccccc2)cc1	> 225
CCCC(=O)OCC(=O)C1(OC(=O)COC)CCC2C3CC(C)C4=CC(=O)C=CC4(C)C3C(O)CC21C (stereo unspecified)	132 to 134
NC(=O)c1cc(F)c(F)c(Cl)c1Cl	153 to 155
CCOC(=O)c1c(Cl)nc2ccsc2c1Cl	73
COC(=O)c1nc(-c2cc(OC)c(Cl)cc2F)cc(NC(C)=O)c1Cl	180 to 182
C=Cc1cc([C@@H](C)NC(=O)C=Cc2ccc(C(C)(C)C)cc2)cc(F)c1NS(C)(=O)=O	127 to 129
Oc1ccc2nc(SCCC(F)C(F)(F)Br)oc2c1 (stereo unspecified)	64.6 to 67.6
C=CCN(CC=C)c1nc(NC(=O)Cc2ccccc2)n2oc(=O)nc2n1	165 to 167
CCc1cn(C2CC(O)C(CN(C)Cc3ccccc3)O2)c(=O)[nH]c1=O (stereo unspecified)	135 to 137
CCOC(=O)c1c(CC)nn2c(-c3ccccc3)ccnc12	83 to 84
OC[C@H]1COc2cc(Cl)ccc2O1	73 to 75

Second part, the compound after the results:

melting point [°C]	Structure (SMILES)
275 to 283	NC(=O)c1sc2nccc(N3CCCC3)c2c1N
119 to 120	CCCOc1ccc(-c2scc(-c3ccccc3Cl)c2CC(=O)NC(=N)n2cccn2)cc1
219 to 220	CNN=C1CCC(C)n2c1ncc(C(=O)O)c2=O (stereo unspecified)
192	Cc1cccc(C(=O)Nc2ccc(N3CCN(Cc4cccc(C#N)c4)CC3)cc2)c1-c1ccc(C(F)(F)F)cc1
59 to 61	COC(=O)c1c(OCc2ccccc2)ccc2c1CCCC2
173	CC1(C)OC(=O)C(c2cccc(F)c2)=C1c1ccc(S(C)(=O)=O)cc1
213	Cc1c(C(=O)Nc2ccc(N3CCC(N4CCC(O)CC4)CC3)c(C#N)c2)cnn1-c1ccc(Cl)cc1
168 to 170	CS(=O)(=O)c1ccc(-n2nc(C(F)(F)F)cc2-c2ccc(-c3cscn3)cc2)cc1
168 to 169	Cc1c(Cc2cccc(C(F)(F)F)c2)sc2c(-c3cc(F)cc(C(=O)O)c3)cccc12
197 to 198	COc1ccc(C(=O)Nc2ccc3oc4c(c3c2)CCCC4)cc1
131 to 133	Cc1cc(C2(C(F)(F)F)CC(n3cncn3)=NO2)ccc1NC(=O)c1cccc(I)c1C(=O)NC(C)C (stereo unspecified)
153 to 155	CN(C)S(=O)(=O)N1CCN(S(=O)(=O)c2ccc(Oc3ccccc3)cc2)[C@@H](C(=O)NO)C1
< 50	COC(=O)C1=C(C)NC(C)=C(C(=O)OCCCOc2ccc(CCO)cc2)C1c1cccc([N+](=O)[O-])c1 (stereo unspecified)
179 to 181	O=C(O)Cc1ccc(CN2CCN(c3ccccc3C(=O)O)CC2)cc1
160 to 161	COc1ccc(CN2C(=O)C(Oc3ccccc3)C2c2ccc(C(=O)O)cc2)cc1OC (stereo unspecified)
181 to 182	N#CC1CCc2c([nH]c3ccc(Cl)cc23)C1 (stereo unspecified)
162 to 164	COc1cc(Nc2cn(Cc3ccccc3)c(=O)c3ccccc23)cc(OC)c1OC
192 to 200	Oc1ccccc1N1c2ccccc2Sc2ccccc21
64 to 66	CCC(=NOCc1ccc(Cl)cc1)c1cc(Cl)ccc1N(C(C)=O)S(=O)(=O)C(F)(F)F
87 to 89	Cc1ccc(S(=O)(=O)OCC2CCc3cc(Br)ccc3C2)cc1 (stereo unspecified)
139 to 144	COC(=O)c1nc(-c2ccc(Cl)cc2F)cc(N)c1OC
107 to 108	CCCOC1(C=O)C=CCC(OC)(N2CCC(c3noc4cc(F)ccc34)CC2)C1O (stereo unspecified)
> 200	CCc1nc(C)c(/C=C(\NC(=O)c2ccc(C(=O)NCc3cccc(O)c3)cc2Cl)C(=O)OC)s1
110	CS(=O)C(c1ccc(Cl)cc1)c1ccc(Cl)cc1 (stereo unspecified)

melting point [°C]	Structure (SMILES)
45 to 52	CN1C(C)(C)CC(OC(=O)CCc2cc(-n3nc4ccc(S(=O)(=O)c5ccccc5)cc4n3)c(O)c(C(C)(C)C)c2)CC1(C)C
134 to 135	COc1cccc(CC(=O)O)c1OCCCn1cc(C(=O)NCc2ccc(Cl)cc2Cl)c(OC(C)C)n1
76 to 80	CCCCc1oc2ccc([N+](=O)[O-])cc2c1C(=O)c1ccc(OCCCO)cc1
159 to 160	Cc1cccc(CC(=O)O)c1OCCCc1cn(-c2ccc(C(F)(F)F)cn2)nc1C(C)C
178 to 179	Cc1nc(N2CCN(Cc3ccccc3)C2=O)sc1C(=O)NCc1cccc(Cl)c1
217 to 218	CC(=O)Nc1ccc2c(c1)CCN2NC(C)=O
211	CC(=O)Nc1c(Cl)c(C(C)(C)C)nn1-c1c(Cl)cc(C(F)(F)F)cc1Cl
101 to 103	CC(C(=O)N(C)C)n1nc(-c2ccccc2)c2c1CCCC2 (stereo unspecified)
182 to 183	O=c1ccn(CCO)c(C(O)c2cccnc2)c1OCc1ccccc1 (stereo unspecified)
164	Nc1[nH]c(=O)c(C(=O)CCC2CCN(CC3CCCCC3)CC2)cc1Cl
174 to 175	CC(C)(C)c1ccc(C(=O)n2c3c(c4ccccc42)CC(C(=O)O)CC3)cc1 (stereo unspecified)
207	CCOC(=O)c1ncc2[nH]c3cccc(Oc4ccc(Cl)cc4)c3c2c1COC
130 to 131	CCCC(=O)c1ccc(-c2ncccc2S(=O)(=O)Nc2ncc(C)nc2OC)cc1
271 to 273	CC(=O)c1ccc(-n2c(-c3sc(Nc4ccccc4)nc3C)nc3ccccc3c2=O)cc1
189 to 190	O=C(NCC1CCCCCC1)c1cc(-c2ccc(Cl)c(C(=O)O)n2)ccc1Cl
75 to 80	Cc1cc(C(Cc2ccc(CCCc3nc(-c4ccccc4)oc3C)cc2)C(=O)O)no1 (stereo unspecified)
170 to 171	O=C(NCc1ccc(C(F)(F)F)cc1)c1cnc(Cl)nc1N1CCCC1
216	O=C(O)c1cnn2c(C(F)F)cc(-c3ccc(C(F)(F)F)c(Cl)c3)nc12
75 to 77	Cc1ccc(C)n1CCNC(=O)COc1ccc(Cl)cc1
167 to 169	COc1ccc(CSc2cccc(C(=O)Nc3ccc(C#N)cc3)c2)cc1
130 to 132	c1ccc(C(c2ccccc2)N2CCN(CCCCCCNc3ccc4ncnn4n3)CC2)cc1
183 to 186	CCCOc1ccc(S(=O)(=O)N2CCN(CC)CC2)cc1-c1nc2cc(N)c(N)cc2c(=O)[nH]1
176 to 178	O=c1[nH]c2ccc(S(=O)CCN3CCC(Cc4ccccc4)CC3)cc2o1 (stereo unspecified)
174 to 177	O=C1CCC(C(=O)O)(c2cccc3ccccc23)CC1
